In ChEMBL document CHEMBL3885881, “DrugMatrix”:

Species on record: Rattus norvegicus
Assay: DrugMatrix - Regimen: Daily Repeat
Format: toxicity, organism-based, Sprague-Dawley
Design: regimen Daily Repeat, gender Male, age 6-8 weeks
Settings: in vivo, po, route oral GAVAGE, […]; for ABSOLUTE BASOPHIL / ABSOLUTE EOSINOPHIL / BASOPHIL / EOSINOPHIL / NUCLEATED RED BLOOD CELLS / ABSOLUTE LYMPHOCYTE / ABSOLUTE MONOCYTE / ABSOLUTE SEGMENTED NEUTROPHIL / ERYTHROCYTE COUNT / HEMATOCRIT / HEMOGLOBIN / LEUKOCYTE COUNT / LYMPHOCYTE / MEAN CORPUSCULAR HEMOGLOBIN / MEAN CORPUSCULAR HEMOGLOBIN CONCENTRATION / MEAN CORPUSCULAR VOLUME / MONOCYTE / NEUTROPHIL / PLATELET COUNT: tissue Blood; for ALANINE AMINOTRANSFERASE / ALBUMIN / ALKALINE PHOSPHATASE / ASPARTATE AMINOTRANSFERASE / BLOOD UREA NITROGEN / CARBON DIOXIDE / CHLORIDE / CHOLESTEROL / CREATINE PHOSPHOKINASE / CREATININE / GLUCOSE / LACTATE DEHYDROGENASE / LIPASE / PHOSPHORUS / POTASSIUM / SODIUM / TOTAL BILIRUBIN / TOTAL PROTEIN / URIC ACID: tissue Plasma
[1] = 0 mg/kg, 72 h, dose level Control, time 3 day
[2] = 0 mg/kg, 120 h, dose level Control, time 5 day
[3] = 0.08 mg/kg, 72 h, dose level Low, time 3 day
[4] = 0.08 mg/kg, 120 h, dose level Low, time 5 day
[5] = 12 mg/kg, 72 h, dose level M1, time 3 day

## C#C[C@]1(O)CC[C@H]2[C@@H]3CCC4=CC(=O)CC[C@@H]4[C@H]3CC[C@@]21C [NORETHINDRONE]
[1]
  ABSOLUTE BASOPHIL: 0 CELLS/uL
  ABSOLUTE EOSINOPHIL: 14 CELLS/uL
  BASOPHIL: 0%
  EOSINOPHIL: 0.17%
  NUCLEATED RED BLOOD CELLS: 0 /100WBC
[2]
  ABSOLUTE BASOPHIL: 0 CELLS/uL
  BASOPHIL: 0%
[3]
  ABSOLUTE BASOPHIL: 0 CELLS/uL
  ABSOLUTE EOSINOPHIL: 0 CELLS/uL
  ABSOLUTE LYMPHOCYTE: 8095 CELLS/uL
  ABSOLUTE MONOCYTE: 0 CELLS/uL
  ABSOLUTE SEGMENTED NEUTROPHIL: 538.33 CELLS/uL
  BASOPHIL: 0%
  EOSINOPHIL: 0%
  ERYTHROCYTE COUNT: 4.99 x10E6/uL
  HEMATOCRIT: 31.97%
  HEMOGLOBIN: 12.7 G/DL
  LEUKOCYTE COUNT: 8.63 x10E3/uL
  LYMPHOCYTE: 94.33%
  MEAN CORPUSCULAR HEMOGLOBIN: 25.5 pg
  MEAN CORPUSCULAR HEMOGLOBIN CONCENTRATION: 39.77 G/DL
  MEAN CORPUSCULAR VOLUME: 64.07 fL
  MONOCYTE: 0%
  NEUTROPHIL: 5.67%
  NUCLEATED RED BLOOD CELLS: 0 /100WBC
  PLATELET COUNT: 1042.33 x10E3/uL
  ALANINE AMINOTRANSFERASE: 76.33 u/L
  ALBUMIN: 4.1 G/DL
  ALKALINE PHOSPHATASE: 395.67 u/L
  ASPARTATE AMINOTRANSFERASE: 84.33 u/L
  BLOOD UREA NITROGEN: 13 mg/dL
  CARBON DIOXIDE: 28 mmol/L
  CHLORIDE: 101 MEQ/L
  CHOLESTEROL: 81 mg/dL
  CREATINE PHOSPHOKINASE: 236 u/L
  CREATININE: 0.17 mg/dL
  GLUCOSE: 185.33 mg/dL
  LACTATE DEHYDROGENASE: 127 u/L
  LIPASE: 24.67 u/L
  PHOSPHORUS: 9.57 mg/dL
  POTASSIUM: 5.52 MEQ/L
  SODIUM: 144.63 MEQ/L
  TOTAL BILIRUBIN: 0.1 mg/dL
  TOTAL PROTEIN: 5.67 G/DL
  URIC ACID: 0.77 mg/dL
[4]
  ABSOLUTE BASOPHIL: 0 CELLS/uL
  ABSOLUTE EOSINOPHIL: 0 CELLS/uL
  ABSOLUTE LYMPHOCYTE: 11824 CELLS/uL
  ABSOLUTE MONOCYTE: 160 CELLS/uL
  ABSOLUTE SEGMENTED NEUTROPHIL: 1549.33 CELLS/uL
  BASOPHIL: 0%
  EOSINOPHIL: 0%
  ERYTHROCYTE COUNT: 5.24 x10E6/uL
  HEMATOCRIT: 32.97%
  HEMOGLOBIN: 13 G/DL
  LEUKOCYTE COUNT: 13.53 x10E3/uL
  LYMPHOCYTE: 87%
  MEAN CORPUSCULAR HEMOGLOBIN: 24.87 pg
  MEAN CORPUSCULAR HEMOGLOBIN CONCENTRATION: 39.43 G/DL
  MEAN CORPUSCULAR VOLUME: 63.07 fL
  MONOCYTE: 1%
  NEUTROPHIL: 12%
  NUCLEATED RED BLOOD CELLS: 0 /100WBC
  PLATELET COUNT: 1265.67 x10E3/uL
  ALANINE AMINOTRANSFERASE: 76 u/L
  ALBUMIN: 4.27 G/DL
  ALKALINE PHOSPHATASE: 393 u/L
  ASPARTATE AMINOTRANSFERASE: 91.67 u/L
  BLOOD UREA NITROGEN: 10.67 mg/dL
  CARBON DIOXIDE: 30 mmol/L
  CHLORIDE: 98 MEQ/L
  CHOLESTEROL: 68 mg/dL
  CREATINE PHOSPHOKINASE: 173 u/L
  CREATININE: 0.12 mg/dL
  GLUCOSE: 150.67 mg/dL
  LACTATE DEHYDROGENASE: 80.33 u/L
  LIPASE: 33.67 u/L
  PHOSPHORUS: 9.53 mg/dL
  POTASSIUM: 5.88 MEQ/L
  SODIUM: 144.2 MEQ/L
  TOTAL BILIRUBIN: 0.1 mg/dL
  TOTAL PROTEIN: 5.83 G/DL
  URIC ACID: 0.63 mg/dL
[5]
  ABSOLUTE BASOPHIL: 0 CELLS/uL
  ABSOLUTE EOSINOPHIL: 0 CELLS/uL
  ABSOLUTE LYMPHOCYTE: 6372.33 CELLS/uL
  ABSOLUTE MONOCYTE: 130.67 CELLS/uL
  ABSOLUTE SEGMENTED NEUTROPHIL: 463.67 CELLS/uL
  BASOPHIL: 0%
  EOSINOPHIL: 0%
  ERYTHROCYTE COUNT: 5.18 x10E6/uL
  HEMATOCRIT: 32.47%
  HEMOGLOBIN: 12.27 G/DL
  LEUKOCYTE COUNT: 6.97 x10E3/uL
  LYMPHOCYTE: 90.33%
  MEAN CORPUSCULAR HEMOGLOBIN: 23.7 pg
  MEAN CORPUSCULAR HEMOGLOBIN CONCENTRATION: 37.8 G/DL
  MEAN CORPUSCULAR VOLUME: 62.77 fL
  MONOCYTE: 1.67%
  NEUTROPHIL: 8%
  NUCLEATED RED BLOOD CELLS: 0 /100WBC
  PLATELET COUNT: 1187.33 x10E3/uL
  ALANINE AMINOTRANSFERASE: 50 u/L
  ALBUMIN: 4.47 G/DL
  ALKALINE PHOSPHATASE: 371.33 u/L
  ASPARTATE AMINOTRANSFERASE: 87.67 u/L
  BLOOD UREA NITROGEN: 11.33 mg/dL
  CARBON DIOXIDE: 34 mmol/L
  CHLORIDE: 101.67 MEQ/L
  CHOLESTEROL: 32.67 mg/dL
  CREATINE PHOSPHOKINASE: 431.33 u/L
  CREATININE: 0.19 mg/dL
  GLUCOSE: 136.67 mg/dL
  LACTATE DEHYDROGENASE: 119.33 u/L
  LIPASE: 8.67 u/L
  PHOSPHORUS: 11.1 mg/dL
  POTASSIUM: 5.95 MEQ/L
